The record followed here is patent publication US20050281814A1, “Combination radiation therapy and chemotherapy in conjunction with administration of growth factor receptor antibody” (priority 2000, published 2005).

The subject of test [1] is MiaPaCa-2 cells. Briefly: In vitro cell proliferation, MiaPaCa-2. Format: cell-based, human. An excerpt:
(§1) Various combinations of treatment modality were studied in vitro.

For test [2], the system named is MiaPaCa-2 cells. Briefly: Apoptotic cell death in vitro (annexin V-FITC), MiaPaCa-2. Format: cell-based, human. To be noted: MiaPaCa-2, p-value<0.05; not enhanced by any other treatment.
Source text: Early stages of apoptosis were identified using an annexin V-FITC apoptosis detection kit (BioVision Research Products, Palo Alto, Calif.). In studies of radiation cell survival assays, survival data was fitted to the linear quadratic (LQ) and single hit multi-target (SHMT) radiobiological models using Fit v. 2.4 software kindly provided by Dr. N. Albright, University of California at San Francisco.
as §1

Test [3] deals with Mia-PaCa-2 human pancreatic cancer cells. Briefly: MiaPaCa-2 xenograft tumor therapy study with IMC-C225, gemcitabine and radiation. Format: in vivo, athymic nude mice. To be noted: s.c. Mia-PaCa-2 tumors, n=8/group, RT 3 Gy q6d.
Protocol: Athymic nude mice were implanted subcutaneously with 2×10^7 Mia-PaCa-2 cells mixed with Matrigel.
MiaPaCa-2 cells were mixed with Matrigel (1:1) and 2×10^7 cells injected s.c. into athymic nude mice on day 0. […] Four groups of mice received gemcitabine (120 mg/kg) i.v. on days 23, 29, 35, 41, 47, and 54. In four groups of mice, tumors were exposed to six fractions of 3 Gy ^60Co radiation on days 24, 30, 36, 42, 48, and 55. The results are presented as the change in tumor size relative to baseline size on day 22. The MiaPaCa-2 experiment was terminated after 333 days.
In the animal model tumor therapy studies, multiple endpoints were examined and appropriate statistical tests were conducted to address differences between treatment groups with respect to each endpoint. The endpoints included, the size of the tumor, which was computed for each tumor at each time period, percent of original tumor size, computed for each tumor at each time point after baseline, regression, time to regression, and time that the tumor size reached twice the original tumor size (time to double). Inferences are made on the true median rather than the mean response, i.e. median tumor size or median time to double in size.
A further test concerns BxPC-3 cells. Briefly: In vitro cell proliferation, BxPC-3. Format: cell-based, human.
The next test relates to SW948 cells. Briefly: SW948 colon tumor xenograft study with IMC-C225, CPT-11 and RT. Format: in vivo, athymic nude mice. To be noted: s.c. SW948 tumors, n=7/group, RT 3 Gy q6d.

Consider `Nc1ccn([C@@H]2O[C@H](CO)[C@@H](O)C2(F)F)c(=O)n1` [gemcitabine], for which the “cell proliferation, combination of radiation (3 Gy) and gemcitabine” value in the test with MiaPaCa-2 cells [1] (MiaPaCa-2) and in the test on BxPC-3 cells (BxPC-3) was “decrease in cell proliferation” each time. Besides, the “inhibition of cell growth” value in the test on MiaPaCa-2 cells [1] (MiaPaCa-2, 24 h exposure to the IC50 dose of gemcitabine) is reported as “approximately 45%”; in the test with BxPC-3 cells (BxPC-3, 24 h exposure to the IC50 dose of gemcitabine) it was “approximately 55%”. In addition, in the test on MiaPaCa-2 cells [2], the apoptotic cell death result is recorded as “small but significant increase”. For the same compound, the “mean tumor size doubling time” value in test [3] (IMC-C225 1 mg q3d×12, GEM 120 mg/kg q6d) is recorded as 22 days. Moreover, the complete tumor regressions in test [3] (IMC-C225 1 mg q3d×12 i.p., GEM 120 mg/kg q6d, regressions/animals) is 0/8.

For the compound `CCc1c2c(nc3ccc(OC(=O)N4CCC(N5CCCCC5)CC4)cc13)-c1cc3c(c(=O)n1C2)COC(=O)[C@]3(O)CC` [CPT-11, irinotecan], the “mean tumor size doubling time” value in the test on SW948 cells (IMC-C225 1 mg q3d×12, CPT-11 33 mg/kg q4d) was determined as 57 days. In addition, in the test on SW948 cells (IMC-C225 1 mg q3d×12 i.p., CPT-11 33 mg/kg i.v. q4d, regressions/animals), the complete tumor regressions is reported as 0/7.
